Results from patent US6867179B1, “Methods of inducing hair growth and coloration” (Trustees of Boston University, priority 1994, dated 2005).
No end group written: not given here.

How the values were obtained:
[1] = system: human p75; experiment: p75 apoptotic signaling in 3T3-p75 cells (aggregation, c-jun, JNK, caspase-3, DNA fragmentation); type: cell-based; conditions: peptide pretreatment, then βA
Procedure: To investigate p75 early signaling, NIH-3T3 cells engineered to constitutively express human p75 (3T3-p75), were stimulated with a known p75 ligand β amyloid (βA), and the distribution of p75 on the cell surface was analysed using immunohistochemistry and confocal laser microscopy. […] (FIG. 13)
To determine if the initial step of p75 aggregation is required for initiation of apoptosis, 3T3-p75 were pretreated with an HPLC purified cyclic peptide (CATDIKGAEC) (SEQ ID NO:9) that binds the ligand binding site of p75, and then cultures were stimulated with βA or with diluent alone.

[2] = system: p75; experiment: p75 signal transduction in melanocytes (JNK activation, intracellular ceramide); type: cell-based, human
Procedure: To investigate p75 signal transduction, it was first determined by RT-PCR that trkA and trkC are not expressed in MC maintained in choleragen/TPA-free medium. MC were incubated with 10 ng/ml nerve growth factor (NGF) or neurotrophin-3 (NT-3) for 30 minutes and c-Jun amino terminal kinase (JNK) activation was determined. […] Furthermore, within 3 hours p75 activation by NGF, but not by NT-3, lead to a 2-fold increase of intracellular ceramide. As before, ceramide increase was abrogated by pre-incubation with the cyclic peptide. Because in cell lines, UV irradiation directly activates cell surface receptors such as Fas and the TNFα receptor, sham- or UV-irradiated MC were used to determine p75 activation.

[3] = system: p75^NTR-NIH 3T3 cells; experiment: Effect of KGA-containing peptides on survival of beta-amyloid treated p75NTR-NIH 3T3 cells; type: cell-based; conditions: 250 nM peptide, 250 nM preaggregated beta-amyloid 1-40, 72 hours
Procedure: p75^NTR-NIH 3T3 cells were maintained in DME supplemented with 10% calf serum until 80% confluent. The cells were washed and incubated in serum free DME containing transferrin (5 microg/ml) and insulin (5 microg/ml). Triplicate dishes were supplemented with diluent or preaggregated beta-amyloid 1-40 (250 nM) as […]. […] After 72 hours, cells were rinsed in PBS and cultures were incubated in 0.25% trypsin at 37° C. Cell yields were determine using a particle counter.

[4] = system: p75 NGF-R; experiment: p75 NGF-R antisense oligonucleotides in UV-irradiated, NGF-supplemented melanocytes; type: cell-based, human; conditions: UV 20 mJ/cm^2, 10 uM oligonucleotide, 48 hours
Procedure: The following sequences were used: Antisense 5' to 3' […] NO: 5); Nonsense 5' to 3° […] NO: 6) (negative control). […] Near confluent cells were irradiated using a 1 KW xenon arc solar simulator (XMN 1000-21, Optical Radiation Corp., Azuza, Calif.) with 20 mJ/cm^2 UV through the petri dish plastic cover. Irradiance was adjusted to 4×10^-5 UV cm^-2 and metered with a research 20 radiometer (model I[…], International Light, Newburyport, Mass.) fitted with a UVB probe at 285 Å 5 nm. […] After the initial 30 minute incubation cells were plated in 35 mm dishes in basal melanocyte medium without serum. Cells were supplemented with fresh oligonucleotides every 12 hours for 48 hours. Cells were visualized by phase contrast microscopy and pictures of representative fields were obtained. Cell yields were determined by counting cells in several representative fields.

[5] = system: BCL-2; experiment: BCL-2 antisense oligonucleotides in UV-irradiated MM4 cells with or without NGF; type: cell-based, human
Description: Purified phosphorothioate oligonucleotides were purchased from Quality Controlled Biochemicals, Inc. (Hopkinton, Mass.). 19 mer oligonucleotides were designed based on the published human BCL-2 sequence (Tsujimoto, Y. and Croce, C. M., Proc. Natl. Acad. Sci. USA, 83:5214-5218 (1986)). The sequence chosen was directed against the […] of the coding region starting 4 bases before the methionine initiation site. Nonsense oligonucleotides were used as control. Sequences used (all written 5′ to 3′): Antisense CCCAGCGTGCGCCATCCTT (SEQ ID NO: 7); Nonsense CTCCCACTCGTCATTCGAC (SEQ ID NO: 8).
MM4 cells were maintained in 60 mm diameter tissue culture dishes in 55.3% DME, 27.6% L15, 15% FBS, 1% nonessential amino acids (GIBCO BRL), 2 mM glutamine and 10 µg/ml insulin. Near confluent cells were UV irradiated with 10 mJ/cm^2. Immediately after irradiation cells were incubated with 10 uM antisense or nonsense BCL-2 oligonucleotides in suspension at […] for 30 minutes. Then cells were plated in tissue culture dishes in the presence or absence of NGF (50 ng/ml). Cells were supplemented with fresh oligonucleotides every 12 hours. Cell yield and BCL-2 level were determined 48 hours after irradiation. Cell yield was determined by counting cells in at least three representative field per each condition.

[6] = system: Bax; experiment: Bax level in beta-amyloid treated melanocytes (Western blot); type: cell-based, human
Procedure: To investigate the mechanism of -amyloid-mediated melanocyte death, Bax levels in melanocytes treated with 25 uM of 1-40 or 25-35-amyloid peptides was examined. Within 4 days of treatment, Bax was induced 3 fold in melanocytes stimulated either with the beta-amyloid 1-40 or 25-35 fragments as compared to melanocytes treated with the 40-1 control fragment or an irrelevant HPLC purified protein of similar size.
Melanocytes were maintained as above. Four days after addition of 25 microM of beta-amyloid fragments 1-40 40-1 or 25-35; or 25 microM of HPLC-purified bovine corticotropin releasing factor (CRF) (Bachem Calif.) (MW 4.7 kD) as an additional negative control, cells were extracted in RIPA buffer (50 mM Tris-HCl [pH 8.0], 0.15 M NaCl, 0.5% sodium deoxycholate, 1% Triton X-100) in the presence of 1 microg/ml aprotinin and 75 microg/ml phenylmethylsulfonyl fluoride (PMSF), sonicated for 1-3 seconds and centrifuged. 40 microg of protein per lane were separated on 12% SDS/PAGE and blotted onto nitrocellulose paper (overnight, 25C). To verify equal loading a duplicate 13% SDS/PAGE was performed and stained with Coomasie Blue R250 stain. […] Bound antibodies were detected using enhanced chemiluminescence kit (Amersham Corp.). […]

[7] = target: p75^NTR over expressed on permanently transfected NIH 3T3 fibroblasts (p75^NTR NIH 3T3 cells); experiment: cell-based or functional assay
[8] = target: human p75 nerve growth factor receptor (human) (UniProt P08138); experiment: cell-based or functional assay
[9] = target: p75^NTR over expressed on permanently transfected NIH 3T3 fibroblasts (p75^NTR NIH 3T3 cells); experiment: competition with 125I beta-amyloid 1-40 on p75^NTR-NIH 3T3 cells, NGF 0-100 ng/ml, counting of lysates
[10] = system: MM4 cells; experiment: MM4 cell yields after UV or sham irradiation with growth factor supplementation; type: cell-based, human
Procedure: Melanocytes or MM4 cells were plated in 60 mm diameter tissue culture dishes. Melanocytes were maintained in Medium 199 supplemented with 7% fetal bovine serum (FBS), 10 ng/ml epidermal growth factor (Collaborative Research), […] (Sigma), […] (Collaborative Research), […] (Sigma), 1.4×10^−6 M hydrocortisone (Calbiochem), […] (Calbiochem), and 10 ng/ml basic fibroblast growth factor (Collaborative Research) (basal melanocyte medium). MM4 cells were maintained in 55.3% DME, 27.6% L15, 15% FBS, 1% nonessential amino acids (GIBCO BRL), 2 mM glutamine and 10 µg/ml insulin. After 24 hours, medium was replaced by phosphate buffered saline (PBS) and cells were irradiated using a 1 KW xenon arc solar simulator (XMN 1000-21, Optical Radiation Corp., Azuza, Calif.) with 5, 10, or 25 mJ/cm^2 UV through the petri dish plastic cover. Irradiance was adjusted to 4×10^−5 UV cm^−2 and metered with a research radiometer (model IL1700A, International Light, Newburyport, Mass.) fitted with a UVB probe at 285 Å 5 nm. After UV irradiation, cells were maintained in their respective media without FBS for 2 days (MM4 cells) or 3 days (melanocytes) and processed as indicated. Sham irradiated control cultures were handled identically but laced under a dark cloth adjacent to the UV beam.
FIGS. 2B and 2D show MM4 cell yields 24-72 hours after a single UV irradiation of 10 mJ/cm^2. FIGS. 2C and 2e show MM4 cell yields 24-72 hours after sham irradiation. Cells in FIGS. 2B and 2C were supplemented with 50 ng/ml NGF or diluent alone. Cells in FIGS. 2D and 2E were supplemented with 50 ng/ml bFGF or diluent alone.
Melanocytes or MM4 cells were plated as described in Example 1. After irradiation, melanocytes were maintained in basal melanocyte medium lacking FBS and hydrocortisone, with 50 ng/ml NGF or diluent alone (melanocyte medium). MM4 cells were maintained in DME supplemented with 50 ng/ml NGF or diluent alone.

[11] = target: p75^NTR over expressed on permanently transfected NIH 3T3 fibroblasts (p75^NTR NIH 3T3 cells); experiment: competition with 125I beta-amyloid 1-40 on p75^NTR-NIH-3T3 cells in suspension, 4 hours, counting of lysates
[12] = target: the molecule itself; experiment: cross-linking of 3T3-p75 cells stimulated with βA, western blot with anti p75 antibodies
[13] = pre-incubation with cyclic peptide

CATDIKGAEC (also: cyclic, ring type not given here)
c-jun transcription [1]: decreased c-jun transcription
p75 aggregation [1]: inhibited p75 aggregation
JNK activation in NGF stimulated cells [2, 13]: abrogated JNK activation
NGF-induced ceramide increase [2, 13]: abrogated
Cell yields, cyclic peptide and beta-amyloid versus beta-amyloid alone [3]: significantly higher

GGCACCTGCCCCCATCGCC (DNA, all phosphorothioate, methylation of C not given here; listed as Homo sapiens) [antisense NGF-R, 19 mer antisense against the 5′ end of the human p75 NGF-R coding region]
NGF effect on melanocyte survival [4]: NGF does not have an effect on melanocyte survival

CCCAGCGTGCGCCATCCTT (DNA, all phosphorothioate, methylation of C not given here; listed as Homo sapiens) [BCL-2 antisense oligonucleotides]
BCL-2 levels (Western blot) ([5]; 10 uM antisense, 48 hours after UV 10 mJ/cm^2): almost undetectable
Cell yields, NGF plus BCL-2 antisense versus NGF plus nonsense ([5]; UV 10 mJ/cm^2, 10 uM oligonucleotide, NGF 50 ng/ml, 48 hours): significantly lower

25-35: beta-amyloid fragment 25-35 (GSNKGAIIGLM; Amyloid-beta protein 42; UniProt P05067 696-706, looked up, fragment)
Bax induction versus 40-1 control fragment or irrelevant protein ([6]; 25 uM, within 4 days): 3 fold
Bax level as compared to the 40-1 peptide ([6]; 25 microM, four days): 160%

beta-amyloid 1-40 peptide (from UniProt P05067 1-40)
cell yield (% reduction of cell yield) [7]: 60
melanocyte cell yield (% decrease in cell yield) [8]: 59

CKGAIC (also: cyclic, ring type not given here) [cyclic KGA-containing hexapeptide]
Cell yields, cyclic peptide and beta-amyloid versus beta-amyloid alone [3]: significantly higher

nerve growth factor (ligand)
maximum inhibition of ^125I beta-amyloid binding [9]: 38 % inhibition
intracellular ceramide (fold increase) [8]: 2

bFGF: basic fibroblast growth factor, a major mitogen for cells of melanocytic origin
MM4 cell survival after UV irradiation ([10]; UV 10 mJ/cm^2, 50 ng/ml bFGF): failed to improve MM4 cell survival
Effect on sham irradiated MM4 cells ([10]; sham irradiation, 50 ng/ml bFGF): mitogenic effect

CVGSNKGAIC (not fully specified (bridges); also: cyclic peptide, ring type not given here) [cyclic peptide … (SEQ ID NO: 4)]
IC50 [11]: 25 nM

B1: NT-3: neurotrophin-3 (protein, UniProt P20783 139-257, looked up)
Neurotrophin-3: YAEHKSHRGEYSVCDSESLWVTDKSSAIDIRGHQVTVLGEIKTGNSPVKQYFYETRCKEARPVKNGCRGIDDKHWNSQCKTSQTYVRALTSENNKLVGWRWIRIDTSCVCALSRKIGRT
UV-induced JNK activation ([2]; NT-3 pre-treatment, within 30 minutes of UV): partially decreased
Increase of intracellular ceramide ([2]; within 3 hours): not by NT-3

B2: human p75 nerve growth factor receptor (receptor, UniProt P08138 29-427, looked up)
chain: KEACPTGLYTHSGECCKACNLGEGVAQPCGANQTVCEPCLDSVTFSDVVSATEPCKPCTECVGLQSMSAPCVEADDAVCRCAYGYYQDETTGRCEACRVCEAGSGLVFSCQDKQNTVCEECPDGTYSDEANHVDPCLPCTVCEDTERQLRECTRWADAECEEIPGRWITRSTPPEGSDSTAPSTQEPEAPPEQDLIASTVAGVVTTVMGSSQPVVTRGTTDNLIPVYCSILAAVVVGLVAYIAFKRWNSCKQNKQGANSRPVNQTPPPEGEKLHSDSGISVDSQSLHDQQPHTQTASGQALKGDGGLYSSLPPAKREEVEKLLNGSAGDTWRHLAGELGYQPEHIDSFTHEACPVRALLASWATQDSATLDALLAALRRIQRADLVESLCSESTATSPV
notes: whole, on cells; also called p75 NGF-R; p75^NTR
binding result [12]: binds
